In ChEMBL document CHEMBL4184270, “Diastereoselective synthesis of fused cyclopropyl-3-amino-2,4-oxazine β-amyloid cleaving enzyme (BACE) inhibitors and their biological evaluation” (Bioorg Med Chem Lett, 2018):

Experiments:
[1] = Plasma concentration in Crl:CD(SD) rat at 10 mg/kg, po administered as single dose via gavage measured after 4 hrs; format: ADME, organism-based
[2] = Unbound plasma concentration in Crl:CD(SD) rat at 10 mg/kg, po administered as single dose via gavage measured after 4 hrs; format: ADME, organism-based; conditions: in vivo
[3] = Drug level in Crl:CD(SD) rat brain at 10 mg/kg, po administered as single dose via gavage measured after 4 hrs; format: ADME, organism-based; conditions: read-out: Drug uptake
[4] = Dissociation constant, pKa of the compound by UV spectrophotometric method; format: physicochemical
[5] = Apparent permeability in pig LLC-PK1 cells; format: ADME, cell-based, Sus scrofa
[6] = Drug level in Crl:CD(SD) rat CSF at 10 mg/kg, po administered as single dose via gavage measured after 4 hrs; format: ADME, organism-based, Cerebrospinal fluid; conditions: read-out: Drug uptake
[7] = Apparent intrinsic clearance in rat liver microsomes at 1 uM; format: ADME, microsome; conditions: read-out: CLH(app)
[8] = Apparent intrinsic clearance in human liver microsomes at 1 uM; format: ADME, microsome; conditions: read-out: CLH(app)

concentration at 4 h [1] | Cp(f) [2] | concentration at 4 h [3] | pKa [4] | Papp [5] | concentration at 4 h [6] | microsomal CLint at 1 µM [7] | microsomal CLint at 1 µM [8] | SMILES
2300 nM | 920 nM | 1100 nM | 9.3 | 1.8 ×10⁻⁶ cm/s | 210 nM | 30 µL/min/mg | 105 µL/min/mg | COc1cnc(C(=O)Nc2ccc(F)c([C@@]3(C)N=C(N)O[C@@H]4C[C@@H]43)c2)cn1
– | – | – | 9.8 | 3.4 ×10⁻⁶ cm/s | – | 52 µL/min/mg | < 14 µL/min/mg | COc1cnc(C(=O)Nc2ccc(F)c([C@]3(C)CCOC(N)=N3)c2)cn1
– | – | – | 8.8 | 2.5 ×10⁻⁶ cm/s | – | – | 162 µL/min/mg | COc1cnc(C(=O)Nc2ccc(F)c([C@@]3(C)N=C(N)O[C@H]4C[C@H]43)c2)cn1
